Experimental data published in patent US20220079888A1, “PRE-NATAL BETA-CRYPTOXANTHIN BENEFITS CHILDREN” (AGENCY FOR SCIENCE, TECHNOLOGY AND RESEARCH (A*STAR), priority 2019, published 2022).

Test system: infants at 24 months
Assay: Associations of maternal plasma carotenoids concentrations with Bayley Scales of Infant and Toddler Development-III (BSID-III) scores, GUSTO cohort, linear regression
Format: in vivo, human
Conditions: for Cognitive β (95% CI) / Expressive Language β (95% CI) / Fine motor β (95% CI) / Gross motor β (95% CI) / Receptive language β (95% CI): per SD increment in log-transformed maternal plasma concentration
Protocol: The Bayley Scales of Infant and Toddler Development, 3rd edition (BSID-III) 2006 was administered to infants at 24 (±1) months, in their homes when infants were likely to be alert. This is a standardized test that assesses development of children 1-42 months of age in the following domains: cognitive, receptive and expressive language, and fine and gross motor skills. The test was administered in English, Chinese, Malay or Tamil languages depending on the child's dominant language.
Data for the present analysis were from the Growing Up in Singapore Towards healthy Outcomes (GUSTO) study a prospective mother-offspring cohort in Singapore (34). Detailed descriptions of the GUSTO study have been published Soh, et al 2014 Int. J Epidemiology 43(5):1401-9, which is hereby incorporated by reference. In brief, pregnant women (≥18 years) in their first trimester (<14 weeks) were recruited from the National University Hospital (NUH) and KK Women's and Children's Hospital (KKH) between June 2009 and September 2010. To be eligible for the study, the pregnant person had to: 1) be a Singapore citizen or permanent residents of Chinese, Malay or Indian ethnicity with homogenous parental ethnic background; 2) have an intention to deliver in the two hospitals and to reside in Singapore for the next five years; and 3) consent to donate birth tissues at delivery. Women receiving chemotherapy, psychotropic drugs or were diagnosed with type-1 diabetes were not eligible to participate. The GUSTO study has received ethical approval from the Institutional Review Board of NUH and KKH, and all procedures were conducted according to the guidelines laid down in the Declaration of Helsinki. Written informed consent was obtained from all participants at study recruitment.
A total of 1247 pregnant women participated at baseline. The present analysis included pregnant women who had singleton live births (n=1237), in whom plasma carotenoids concentrations were analyzed (n=701), and their offspring completed neurocognitive assessments at 24 months (n=361).
Administration and scoring was performed by research coordinators trained by the head psychologist from KKH in accordance to the manual. Raw test scores were used as age-specific norms were not available for our population.
Maternal plasma concentrations of individual carotenoids were summarized according to maternal and infant characteristics for the 419 mother-offspring pairs with data for the cognitive test. Differences in concentrations between groups were compared using non-parametric analyses Wilcoxon rank-sum and Kruskal-Wallis tests, as data were not normally distributed. Bonferroni post hoc analysis was performed to identify groups which differed if the Kruskal Wallis test was significant. The values for individual maternal plasma carotenoids were log-transformed, then converted to standard deviation scores (SDS) for easier interpretation. The BSID-III raw scores were also converted to SDS to facilitate comparison across the cognitive tests and domain scales.
Associations of each maternal plasma carotenoids with each BSID-III scale in the children were examined using linear regressions. Several statistical models were employed: Model 1 basic model with adjustment for infant's exact age at cognitive testing; Model 2 additional adjustment for maternal age, ethnicity, education, pre-pregnancy BMI, antenatal depression and anxiety levels (potential confounders). We considered Model 2 to be the main model. Further adjustment for infant gestational age, birth weight and breastfeeding duration was performed to examine if any associations found were acting through these factors (Model 3).
Missing data for covariates were imputed using multiple imputation technique with chained equations (20 times) for the following confounding variables: n=3 maternal education, n=7 EPDS, n=21 STAI, n=40 maternal pre-pregnancy BMI, n=5 infant birthweight and n=10 breastfeeding duration. […]

[1] = Model 1 (adjusted for infant's age at testing), BSID-III at 24 months, n = 361
[2] = Model 1, BSID-III at 24 months, n = 361
[3] = Model 2 (Model 1 plus maternal age, ethnicity, education, pre-pregnancy BMI, parity, antenatal depression and anxiety), 24 months
[4] = Model 2 (adjusted for confounders), 24 months
[5] = Model 3 (Model 2 plus infant gestational age, birth weight, breastfeeding duration), 24 months
[6] = Model 3 (also adjusted for potential mediators), 24 months

SMILES | Cognitive β (95% CI) [1] | Expressive Language β (95% CI) [2] | Fine motor β (95% CI) [2] | Gross motor β (95% CI) [2] | Receptive language β (95% CI) [2] | Cognitive β (95% CI) [3] | Expressive Language β (95% CI) [4] | Fine motor β (95% CI) [4] | Gross motor β (95% CI) [4] | Receptive language β (95% CI) [4] | Cognitive β (95% CI) [5] | Expressive Language β (95% CI) [6] | Fine motor β (95% CI) [6] | Gross motor β (95% CI) [6] | Receptive language β (95% CI) [6] | association of higher maternal concentrations with performance in expressive language (24 months, result in words) | association of higher maternal concentrations with receptive language (24 months, result in words) | Expressive Language β (95% CI) (Model 2 (adjusted for confounders), 24 months, listed as lycopene) | association of higher maternal concentrations with cognitive development in infants (BSID-III scales at 24 months, after adjustment for confounders, result in words)
CC1=C(/C=C/C(C)=C/C=C/C(C)=C/C=C/C=C(C)/C=C/C=C(C)/C=C/C2=C(C)C[C@@H](O)CC2(C)C)C(C)(C)C[C@H](O)C1 [Zeaxanthin, zeaxanthin] | 0.01 SD | −0.09 SD | 0.04 SD | 0.02 SD | −0.10 SD | 0.05 SD | −0.05 SD | 0.05 SD | 0.04 SD | −0.05 SD | 0.05 SD | −0.04 SD | 0.05 SD | 0.05 SD | −0.04 SD |  |  |  | 
CC1=C[C@H](O)CC(C)(C)[C@H]1/C=C/C(C)=C/C=C/C(C)=C/C=C/C=C(C)/C=C/C=C(C)/C=C/C1=C(C)C[C@@H](O)CC1(C)C [Lutein, lutein] | 0.03 SD | 0.004 SD | 0.01 SD | 0.03 SD | 0.08 SD | −0.08 SD | −0.09 SD | 0.02 SD | −0.02 SD | −0.04 SD | −0.11 SD | −0.12 SD | −0.04 SD | −0.04 SD | −0.08 SD |  |  |  | 
CC1=C(/C=C/C(C)=C/C=C/C(C)=C/C=C/C=C(C)/C=C/C=C(C)/C=C/C2=C(C)CCCC2(C)C)C(C)(C)CCC1 [β-carotene] | 0.22 SD | 0.18 SD | 0.14 SD | 0.15 SD | 0.23 SD | 0.16 SD | 0.14 SD | 0.12 SD | 0.14 SD | 0.15 SD | 0.13 SD | 0.10 SD | 0.10 SD | 0.12 SD | 0.11 SD |  |  |  | 
CC1=CCCC(C)(C)C1/C=C/C(C)=C/C=C/C(C)=C/C=C/C=C(C)/C=C/C=C(C)/C=C/C1=C(C)CCCC1(C)C (stereo not drawn) [α-carotene] | 0.06 SD | 0.10 SD | 0.08 SD | 0.08 SD | 0.09 SD | −0.01 SD | 0.06 SD | 0.06 SD | 0.06 SD | 0.002 SD | −0.04 SD | 0.02 SD | 0.05 SD | 0.04 SD | −0.04 SD |  |  |  | 
CC(C)=CCC/C(C)=C/C=C/C(C)=C/C=C/C(C)=C/C=C/C=C(C)/C=C/C=C(C)/C=C/C=C(\C)CCC=C(C)C [Lycopene, lycopene] | 0.14 SD | 0.15 SD | 0.04 SD | 0.09 SD | 0.11 SD | 0.12 SD | 0.15 SD | 0.03 SD | 0.08 SD | 0.09 SD | 0.11 SD | 0.14 SD | 0.02 SD | 0.09 SD | 0.07 SD | associated with better performance | not with receptive language | 0.15 SD | 
CC1=C(/C=C/C(C)=C/C=C/C(C)=C/C=C/C=C(C)/C=C/C=C(C)/C=C/C2=C(C)C[C@@H](O)CC2(C)C)C(C)(C)CCC1 [β-cryptoxanthin] | 0.21 SD | 0.15 SD | 0.17 SD | 0.17 SD | 0.21 SD | 0.18 SD | 0.13 SD | 0.16 SD | 0.16 SD | 0.17 SD | 0.18 SD | 0.12 SD | 0.15 SD | 0.15 SD | 0.16 SD |  |  |  | most consistently associated with better cognitive development
